Measurements: PMC5299588, “Lumican Peptides: Rational Design Targeting ALK5/TGFBRI” (Scientific Reports, 2017)
“Also recorded” adds a separate entry of the source. No end group written: not given here.

Columns and labels:
corneal epithelium [1] = experiment: In vivo corneal epithelium debridement wound healing in Lum−/− mice, peptide eye drops; set-up: species or system C57BL/6 genetic background; conditions: drops 0.3 μM every 15 min for 5 h
Source text: Lum null (Lum^−/−) mice were also used to examine the efficacy of LumC peptides in promoting epithelium sheet migration following debridement wound (Supplemental Fig. S2).
(§1) Use of experimental mice is in compliance to the ARVO statement for the use of animals in vision research and all procedures are approved by IACUC of the University of Cincinnati. Lum^−/− mice in C57BL/6 genetic background aged 7–8 weeks were used in this study. Mice were anesthetized with intraperitoneal injections of a combination of ketamine (10 mg/kg; Henry Shein) and xylazine (1 mg/kg; Henry Shein) prior to the surgery, and a drop of proparacaine hydrochloride 0.5% (Alcon) was applied to the cornea to deliver local anesthesia before injury. Briefly, a 2 mm diameter trephine was used to demarcate the central epithelial region of the eye and the epithelium within the demarcated region was mechanically removed using an Algerbrush II (Alger Equipment Co., Inc., Lago Vista, TX) while viewing the cornea under a stereomicroscope (Stemi SC II stereomicroscope with epi-fluorescence attachment, Carl ZEISS). Eight mice per group were treated and the experiments were repeated at least two times. Each mouse was topically treated with one drop peptide solution (10 μl) at concentration of 0.3 μM or 10 μL PBS every 15 min for 5 h after wounding. After 5 h, mice were sacrificed. The eyes were excised and fixed in 4% paraformaldehyde in PB (0.1 M phosphate buffer, pH 7.4. whole mount corneas were stained with phalloidin and DAPI and image with a Zeiss Apo Tome microscope (Observer Z1). The migration of epithelium sheet was determined as previously described. In brief, migrated corneal epithelium was measured on whole mount samples in 5 different locations equally distributed around the entire circumference of the wound. The number of animals in each experimental group is on the bars in the bar chart. The statistical analyses as well as symbols are shown in the graph legend. PBS treated Lum^−/− mice were used as negative controls, in which the epithelium sheet migrated less than 50 μm in 5 h (Supplemental Fig. 2 for representative plots). Four Z-staged images were collected from each corneas, the epithelium migration was determined by the distance of migration of epithelium front to the initial injured line as previously described.

corneal epithelium [2] = experiment: In vivo corneal epithelium debridement wound healing in mice, peptide eye drops; set-up: species or system mouse; conditions: for promotion of corneal epithelium wound healing: debridement wound, eye drops 0.3 μM every 15 min for 5 h
Method: To confirm peptide action promoting corneal epithelium wound healing in vivo, mice were subjected to a 2 mm with corneal epithelium debridement. The injured corneas were treated with 10 μl eye drops lumican peptides (0.3 μM) every 15 min for 5 h as previously described. Migration distance was measured between the original wound edge and the wound front. In Lumikine (LumC13C-A) treated corneas, the epithelium sheet moved ∼144 μm. […] The average epithelium migration (μm) and standard deviation were calculated from n corneas of each of two separate experiments.
as §1

ALK5 [3] = molecular target: T1, ALK5 (Homo sapiens, UniProt P36897); experiment: kcat/Km of peptides and loss of binding outside EVTLN region; conditions: method not described
T1 sequence (P36897 34-503): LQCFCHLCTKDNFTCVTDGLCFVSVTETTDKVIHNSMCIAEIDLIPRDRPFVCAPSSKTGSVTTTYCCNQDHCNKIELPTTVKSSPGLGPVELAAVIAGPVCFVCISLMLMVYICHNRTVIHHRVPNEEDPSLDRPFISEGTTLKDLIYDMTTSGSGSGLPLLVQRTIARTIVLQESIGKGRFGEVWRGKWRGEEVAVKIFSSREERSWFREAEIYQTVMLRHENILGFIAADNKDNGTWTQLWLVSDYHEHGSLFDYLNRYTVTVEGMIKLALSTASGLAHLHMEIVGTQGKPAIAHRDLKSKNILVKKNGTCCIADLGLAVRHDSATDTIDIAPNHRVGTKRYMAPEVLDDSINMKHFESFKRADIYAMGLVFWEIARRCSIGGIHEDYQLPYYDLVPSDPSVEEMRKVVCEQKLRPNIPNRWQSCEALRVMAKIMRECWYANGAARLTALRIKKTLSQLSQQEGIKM

ALK5 [4] = molecular target: T1, ALK5; experiment: Binding affinity (Kd) of designed peptide; conditions: method not described; highest affinity in all designed peptides
ALK5 [5] = molecular target: T1, ALK5; conditions: cited from earlier work
Source text: Proteoglycans (PGs) are complex polymers composed of a core protein to which one or more glycosaminoglycan (GAGs) chains are covalently attached. They play a central role in physiology and disease[1][2][3][4][5][6]: modulating cell metabolism, mediating cell-cell trafficking, providing support for connective tissue and regulating of a wide range of effectors at both systemic and cellular levels. Small leucine rich proteoglycans (SLRPs) are a family of proteoglycans with small core proteins (~40 Kd) that contain hyper variable glycosylation sites with multivalent binding abilities. […] In this present study, we have accessed the binding of rationally designed LumC peptides with a related scoring approach, MM-GBSA, after docking and molecular dynamics simulations. In this method, docking scores are used to define initial binding sites, and more expensive and rigorous methods such as molecular dynamics (MD) simulation and binding free ...

prostate cancer cell = conditions: cited from earlier work
Source text: This could be of particular interest in conditions where patients display delayed wound healing, such as diabetes, which culminates in an increased risk of inflammation and scarring. The significance of synthesizing lumican peptides that mediate TGFbRI signaling also goes beyond promoting skin and corneal wound healing.

[6] = Mass spectrometry of LumC13 in solution (dimerization); format: physicochemical; conditions: peptide in solution

For “IKHLRLDGEVTLN [Hybrid 1/3, hybrid peptide …]”, the “promotion of epithelium wound healing / migration” value (corneal epithelium [1]) was “little effect promoting wound healing”.

For “IKHLRLDGNRISE [LumC33ΔC20, Lumican peptide …; control peptide]”, the “promotion of epithelium wound healing / migration” value (corneal epithelium [1]) was “little effect promoting wound healing”, the “promotion of corneal epithelium wound healing” value (corneal epithelium [2]) was “did not promote epithelium wound healing” and the kcat/Km (ALK5 [3]) was less than 100 M⁻¹ s⁻¹.

LPPDMYECEVTLN [Hybrid 2/3] gave a Kd (ALK5 [4]) of 28.7 ± 3.9 µM.

In the case of “LPPDMYECLRVAN [LumC18ΔC5, Lumican peptide …]”, the “promotion of epithelium wound healing / migration” value (corneal epithelium [1]) is reported as “little effect promoting wound healing”.

In the case of “Lumican: class II SLRP member, one of the major proteoglycans in the corneal stroma”, the “wound healing via C-terminal domain / TGFβRI interaction” value (ALK5 [5]) is listed as “promotes wound healing via its C-terminal domain due to its interaction with TGFβRI (ALK5)” and the “prostate cancer cell migration” value (prostate cancer cell) is listed as “inhibits prostate cancer cell migration”.

With “YEALRVANEVTLN [LumC13C-A, Lumican peptide … (Lumikine)]” the “promotion of epithelium wound healing / migration” value (corneal epithelium [1]) was “promoted wound healing of corneal epithelium debridement of Lum^−/− mice to the same extent as injured wild type mice; also recorded: higher pharmaceutical activity of LumC13C-A compared to LumC13; also recorded: significantly promoted epithelium wound healing”, the epithelium migration distance (corneal epithelium [2]; 2 mm debridement, 10 μl eye drops 0.3 μM every 15 min for 5 h, between original wound edge and wound front) was roughly 144 μm and the “promotion of corneal epithelium wound healing” value (corneal epithelium [2]) was “increased ability to promote wound healing”. For the same substance, the “binding to ALK5 to promote wound healing” value (ALK5 [5]; synthetic LumC13-terminal peptide YEALRVANEVTLN) was “binding ALK5 to promote wound healing”.

In the case of “YECLRVANEVTLN [LumC13, peptide designed from the 13 C-terminal amino acids of lumican, …]”, the “promotion of epithelium wound healing / migration” value (corneal epithelium [1]) is reported as “moderately increased activity in promoting wound healing when compared to LumC13C-A”, the “dimerization in solution via disulfide bond formation” value [6] is reported as “dimerization of the LumC13 peptides in solution via disulfide bond formation of cysteine residue, which reduces the activity of dimerized LumC13” and the “promotion of corneal epithelium wound healing” value (corneal epithelium [2]) is reported as “increased ability to promote wound healing”. For the same substance, the “promotion of epithelial cell migration (words, conclusion)” value (corneal epithelium [2]; in vitro and in vivo wound healing assays) was “essential to promote epithelial cell migration to the same extent as lumican” and the kcat/Km (ALK5 [3]) was 1e+06 ± 4000 M⁻¹ s⁻¹.
